Measured values as given in patent US10835500B2, “Medicament for accelerated wound healing” (Symrise AG, priority 2014, dated 2020).
“Also recorded” adds a separate entry of the source.

Columns and labels:
primary keratinocytes = assay: Calcium imaging in primary keratinocytes; assay type: cell-based, human; details: primary keratinocytes; for calcium signals on repeated stimulation: repeated application (500 μM in FIG. 9)
Description: The Sandalore®-induced signal cascade in HaCaT cells and primary keratinocytes was pharmacologically characterized using the calcium imaging technique and specific blockers of signal cascade proteins. An investigation was first conducted in order to determine whether the calcium signals are caused by calcium inflow from the extracellular space. For this purpose, a calcium-free extracellular solution was used with a calcium chelator (EGTA) added. […] In order to investigate the role of adenylyl cyclase, the specific blockers SQ-22536 and MDL-12330A were used. […] The efficacy of the blockers was tested in this case with histamine, which activated the PLC signalling pathway (FIG. 11c).
Effect of the OR2AT4 ligand Sandalore® on intracellular calcium concentration of cultivated keratinocytes. […] 100 μM of ATP was used at the end of each measurement as a positive control stimulus. Right: Quantitative evaluation of calcium signals in 4-time application of Sandalore® (500 μM). Shown are the mean values of the individual applications including standard error. Mann-Whitney U test. *: p<0.05. C) and D): dose-dependent activation of HaCaT cells in calcium imaging experiments. Shown are the mean amplitudes including standard error at various concentrations in the first (C) and fourth (D) Sandalore® application. Number of cells measured: 0.0125 mM (39), 0.025 mM (30), 0.1 mM (46), 0.5 mM (34), 1 mM (63), 2 mM (41), 10 mM (36).
A) Representative calcium imaging traces of HaCaT cells (left) and primary keratinocytes (right) incubated with the gap junction blocker 1-octanol (500 μM) and then repeatedly stimulated with Sandalore® (500 μM, horizontal bars) (blue trace). […] 100 μM of ATP was used at the end of each measurement as a positive control stimulus. Quantitative evaluation of HaCaT cells (B) and primary keratinocytes (C) incubated with the gap junction blockers 1-octanol (500 μM) or carbenoxolone (10 μM) and then repeatedly stimulated with Sandalore® (500 μM) or Lyral (1 mM) in calcium imaging experiments. Shown are the mean values of the individual applications including standard error relative to the control measurements (Sandalore® application without blocker). Mann-Whitney U test. Number of cells measured: Sandalore®+1-octanol (HaCaT (110), keratinocytes (26)); Sandalore®+carbenoxolone: HaCaT (74); Lyral+carbenoxolone: HaCaT (43). ***: p<0.001.
Pharmacological characterization of Sandalore®-induced signal cascade in human keratinocytes. A)-D). Shown are representative calcium imaging traces of primary keratinocytes in the presence of a blocker (blue). The horizontal bars correspond to the application times. 100 μM of ATP was used at the end of each measurement as a positive control stimulus. A) Measurement with calcium-free extracellular solution (+10 mM EGTA). B) Measurement with the adenylyl cyclase blocker SQ-22536 (100 μM). C) Use of the phospholipase-C blocker U-73122 (10 μM). 100 μM of histamine was taken as a positive control. D) Measurement with the CNG channel blocker L-cis-diltiazem (150 μM). E) Overview of pharmacological measurement of HaCaT cells and primary keratinocytes (Kera). The mean amplitudes relative to the control measurements (dashed line) are indicated. MDL-12330A (40 μM). EGTA: calcium-free Ringer (HaCaT n=46, Kera n=52), SQ: SQ-22536 (HaCaT n=60, Kera n=26), MDL: MDL-12330A (HaCaT n=69, Kera n=24), U-73122 (HaCaT n=41, Kera n=25), L-cis-D.: L-cis-diltiazem (HaCaT n=41, Kera n=25). Mann-Whitney U test. ***: p<0.001. F) Determination of the cAMP contents of HaCaT cells after stimulation with Sandalore® by means of cAMP-Glo™ assays. The dots show the mean cAMP content including standard error after 10-minute Sandalore® stimulation (1 μM-10,000 μM). Significance was determined between HaCaT cells stimulated with Sandalore® and stimulated with an equivalent volume of DMSO (0.2%). Kruskal-Wallis Test with multiple comparison; n=3 experiments. *: p<0.05.

HaCaT cells = assay: Proliferation assay (CyQuant) on HaCaT cells; assay type: cell-based, human
Description: It was next investigated whether Sandalore® has an effect on the growth behavior of skin cells. For this purpose, HaCaT cells were again stimulated for five days with Sandalore®, and cell count determination was carried out by means of a proliferation assay. […] In order to verify that this increase in proliferation is induced via activation of OR2AT4, HaCaT cells were transfected with siRNA or scRNA respectively, and the proliferation assay was repeated.
In addition, the cell count was determined after costimulation (1:1) by Sandalore® (500 μM) with the antagonists Oxyphenylon (500 μM) or Phenirat (500 μM). […] The effect was significant for Oxyphenylon.
Effect of Sandalore® long-term stimulation on morphology, growth, and migration processes in keratinocytes. A) Phase contrast image and PI stains of HaCaT cells and primary keratinocytes after stimulation with Sandalore® (500 μM) or 0.1% DMSO (control) for five days. On positive PI staining, the cell nuclei are stained red. Scale: 100 μm. B) Evaluation of the proliferation assay carried out with the CyQuant Cell Proliferation Kit on HaCaT cells after 5-day stimulation with 500 μM of Sandalore® or 0.1% DMSO (control). For the RNA interference experiments, the cells were transfected with siRNA or scRNA on the day before Sandalore® stimulation. Shown is the mean cell count including standard error relative to untreated cells. Mann-Whitney U test; n=3 experiments. *: p<0.05; **: p<0.01. S: Sandalore. C) Agarose assay for determination of migration of HaCaT cells. Top: Transmitted light images of HaCaT cells that have migrated in the direction of Sandalore® (500 μM) or 0.1% DMSO. The growth margin of the cells was surrounded in black. Scale: 250 μm. Bottom: Evaluation of the proliferation assay. The longest path traversed by the cells and the overgrown area were measured and compared to the control (0.1% DMSO). Paired two-sided T test. Mean values including standard error; n=4 experiments. **: p<0.01; ***: p<0.001.

Compound | calcium signals on repeated stimulation (primary keratinocytes) | effect of antagonist alone on proliferation (HaCaT cells; antagonist alone) | proliferation after costimulation with Sandalore (HaCaT cells; costimulation 1:1, Sandalore 500 μM + antagonist 500 μM) | increase of proliferation compared to the control (0.1% DMSO) (HaCaT cells; 5-day stimulation, 500 μM) [%] | share of cells repeatedly stimulated (primary keratinocytes; calcium imaging) | calcium signals on repeated stimulation (primary keratinocytes; listed as Sandalore)
CC1=CCC(CCC(C)CO)C1(C)C (stereo not shown) [Brahmanol®] | significant sensitization | – | – | – | – | –
CC(=O)CCc1ccc(O)cc1 [Oxyphenylon] | – | no significant effect | proliferation was reduced. The effect was significant | – | – | –
CC1=CCC(CCC(C)C(C)O)C1(C)C (stereo not shown) [Sandalore®] | significant sensitization; also recorded: induced calcium signals | – | – | 33 | 80-90% | significant sensitization
